Results on one molecule are retold here after patent US20150224129A1 (priority 2012, published 2015).

One assay relates to S. pneumoniae serotype 1. The arrangement: species or system mice. To be noted: mouse, in vivo.
Another assay concerns S. pneumoniae. The following applies: exogenous activation of lung iNKT cells; high dose of bacteria; no previous influenza; cited from earlier work.
The test system of a further assay is iNKT cells. Put plainly: Analysis of lung iNKT cell activation (intracellular IFN-γ, flow cytometry). The assay is classed as in vivo, mice. To be noted: lung iNKT cells of IAV-experienced animals (day 7 post-IAV) compared with naïve animals; i.n. administration. For orientation: In flow cytometry, cells or beads pass a laser one at a time.

Turning to `CCCCCCCCCCCCCCCCCCCCCCCCCC(=O)N[C@@H](CO[C@H]1O[C@H](CO)[C@H](O)[C@H](O)[C@H]1O)[C@H](O)[C@H](O)CCCCCCCCCCCCCC` [α-GalCer, α-galactosylceramide], in the assay on S. pneumoniae serotype 1, the “protection against S. pneumoniae challenge, as assessed by the enhanced survival rate” value was about 70%. In addition, in the assay with S. pneumoniae, the “clearance of S. pneumoniae” value is on record as “leads to the clearance of S. pneumoniae”. For the same molecule, the “iNKT cell activation (IFN-γ production) in response to α-GalCer” value with iNKT cells was “leads to iNKT cell activation”.
